Reference: patent publication US10213429B2, “Imidazo-pyrazinyl derivatives useful as soluble guanylate cyclase activators” (Merck Sharp & Dohme Corp., priority 2015, dated 2019)

Target: T1, sGC α1/β1 heterodimer (Homo sapiens, UniProt Q02108+Q02153)
T1 construct: expressed in transfected cells; host or cells: CHO-K1 (clone #7, CHO-K1/sGC)
T1 sequence (Q02108 1-690): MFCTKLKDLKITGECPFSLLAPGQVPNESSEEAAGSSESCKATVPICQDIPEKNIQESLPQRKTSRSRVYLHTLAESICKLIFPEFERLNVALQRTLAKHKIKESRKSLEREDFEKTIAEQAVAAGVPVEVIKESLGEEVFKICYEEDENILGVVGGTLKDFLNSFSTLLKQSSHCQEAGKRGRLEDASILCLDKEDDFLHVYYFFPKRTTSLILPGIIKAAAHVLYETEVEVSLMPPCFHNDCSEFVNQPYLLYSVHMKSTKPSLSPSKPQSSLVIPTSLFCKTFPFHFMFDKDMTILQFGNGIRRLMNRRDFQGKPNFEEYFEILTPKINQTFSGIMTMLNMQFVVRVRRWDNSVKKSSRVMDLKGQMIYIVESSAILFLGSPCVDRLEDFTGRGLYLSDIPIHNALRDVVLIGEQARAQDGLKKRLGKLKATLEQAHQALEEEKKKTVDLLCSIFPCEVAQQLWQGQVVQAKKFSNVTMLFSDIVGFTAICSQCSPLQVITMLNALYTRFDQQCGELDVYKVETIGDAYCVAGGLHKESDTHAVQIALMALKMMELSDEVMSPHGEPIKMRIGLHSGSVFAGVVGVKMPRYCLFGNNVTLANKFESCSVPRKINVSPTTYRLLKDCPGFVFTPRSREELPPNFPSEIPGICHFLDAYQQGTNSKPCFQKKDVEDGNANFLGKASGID
T1 sequence (Q02153 1-619): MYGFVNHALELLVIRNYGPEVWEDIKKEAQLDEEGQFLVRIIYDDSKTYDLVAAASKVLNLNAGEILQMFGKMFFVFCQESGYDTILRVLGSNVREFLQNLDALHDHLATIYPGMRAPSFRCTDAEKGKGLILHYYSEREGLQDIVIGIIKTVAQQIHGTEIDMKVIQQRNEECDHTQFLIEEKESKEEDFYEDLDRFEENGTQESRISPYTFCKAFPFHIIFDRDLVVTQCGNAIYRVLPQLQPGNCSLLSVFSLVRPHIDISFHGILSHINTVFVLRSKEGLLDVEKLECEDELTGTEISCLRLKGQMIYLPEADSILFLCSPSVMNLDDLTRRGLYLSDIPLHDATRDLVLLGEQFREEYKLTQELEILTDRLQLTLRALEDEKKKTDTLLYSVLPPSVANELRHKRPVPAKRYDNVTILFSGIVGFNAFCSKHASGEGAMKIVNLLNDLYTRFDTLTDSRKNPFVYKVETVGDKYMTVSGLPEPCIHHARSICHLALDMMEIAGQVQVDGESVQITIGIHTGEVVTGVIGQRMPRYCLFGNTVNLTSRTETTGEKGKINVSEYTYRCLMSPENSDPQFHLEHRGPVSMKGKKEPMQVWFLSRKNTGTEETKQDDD
Assay: Cell-Based sGC Functional Assay (CASA Assay), cGMP by HTRF in CHO-K1/sGC cells
Conditions: for Emax: CHO-K1, percent activation relative to maximum cGMP production of Compound A (= 100%), read-out: % Act.; for EC50: cGMP production, 1 hr at 37° C., 4P fit, presence or absence of 1 μM DETA-NO not given, read-out: IP (nM) (inflection point); for % Act.: percent activation relative to maximum cGMP production of Compound A (= 100%)
Source text: Biological Assay 1: Cell-Based sGC Functional Assay (CASA Assay)
sGC is a heme-containing enzyme that converts GTP to secondary messenger cGMP. Increases in cGMP levels affect several physiological processes including vasorelaxation through multiple downstream pathways. […] Heme-dependent activators (HDAs) preferentially activate sGC containing a ferrous heme group. To determine the effect of sGC activators on enzyme activity, the CASA assay was developed to monitor the generation of cGMP in a cell line that stably expresses the heterodimeric sGC protein.
A CHO-K1 cell line stably expressing the sGC α1/β1 heterodimer was generated using a standard transfection protocol. CHO-K1 cells were transfected with plasmids pIREShyghsGCα1 and pIRESneo-hsGCβ1 simultaneously using FUGENE reagent. Clones that stably express both subunits were selected with hygromycin and neomycin for ˜2 weeks. Clone #7 was chosen for the assay and was designated CHO-K1/sGC. CHO-K1/sGC cells were maintained in F-K12 medium containing 10% heat-inactivated Fetal Bovine Serum (FBS), 100 μg/mL penicillin/streptomycin, 0.5 mg/mL hygromycin and 0.25 mg/mL G418. The cells were then cryopreserved in LN2. On the day of the assay, cells were thawed and resuspended in EBSS Assay Buffer (Sigma, E3024) supplemented with 5 mM MgCl2, 10 mM HEPES (4-(2-hydroxyethyl)piperazine-1-ethanesulfonic acid) and 0.05% BSA (bovine serum albumin) (EAB) and cell density was then adjusted to 4×10^5/mL with EAB. IBMX (3-isobutyl-1-methylxanthin, 0.5 mM) was added to inhibit degradation of cGMP. Compounds were diluted from DMSO stock solutions and added to the assay at a final DMSO concentration of 2.5%. Cells were incubated with compounds in the presence and absence of 1 μM of Diethylenetriamine/nitric oxide adduct (DETA-NO; Sigma, 17018) for 1 hr at 37° C. At the end of the incubation period, the reaction was terminated and the cells were lysed with the detection reagents from Cisbio Kits. The level of intracellular cGMP was determined using an HTRF-based assay kit (CisBio, 62GM2PEC), which detects the displacement of a fluorescence labeled cGMP from its specific antibody. The cGMP produced by test compounds was directly compared to the maximum cGMP production (this value was set to equal 100% activation.) of the published sGC-HDA Compound A:
[drawing 175] (Example 1 in WO 2010/065275, published Jun. 10, 2010). The test compounds' activities were then expressed as a percentage of Compound A, the standard in every experiment. This percent activation was calculated either in the presence or absence of DETA-NO which was then plotted. IP and maximum fold induction was derived using ADA analysis software for 4P fit.
The compounds in the Examples of the instant invention had inflection points (IP) less than or equal to 10 μM and most less than or equal to about 1 μM.

Compound | Emax | EC50 | % Act.
CC1(c2ccc(Cl)cc2)C(=O)Nc2nc(-c3cn4ccnc4c(OCCC4CC4)n3)nc(O)c21 (stereo not shown) [Example 94A, 5-(4-Chlorophenyl)-2-(8-(2-cyclopropylethoxy)imidazo[1,2-a]pyrazin-6-yl)-4-hydroxy-5-methyl-5H-pyrrolo[2,3-d]pyrimidin-6(7H)-one] | 90% | 136 nM | –
CCCCc1nc(-c2ncc3c(n2)NC(=O)C3(c2ccc(F)c(F)c2)C2CC2)cn2ccnc12 (stereo not shown) [Example 43A, 2-(8-butylimidazo[1,2-a]pyrazin-6-yl)-5-cyclopropyl-5-(3,4-difluorophenyl)-5H-pyrrolo[2,3-d]pyrimidin-6(7H)-one] | 112% | 7 nM | –
CCCCc1nc(-c2ncc3c(n2)NC(=O)C3(C)c2ccc(F)cn2)cn2cc(C)nc12 (stereo not shown) [Example 91B, 2-(8-Butyl-2-methylimidazo[1,2-a]pyrazin-6-yl)-5-(5-fluoropyridin-2-yl)-5-methyl-5H-pyrrolo[2,3-d]pyrimidin-6(7H)-one] | 117% | 330 nM | –
CC1(c2ccc(F)cc2)C(=O)Nc2nc(-c3cn4ccnc4c(CCC(F)(F)C(F)(F)F)n3)nc(C3CC3)c21 (stereo not shown) [Example 75A, 4-cyclopropyl-5-(4-fluorophenyl)-5-methyl-2-(8-(3,3,4,4,4-pentafluorobutyl)imidazo [1,2-a]pyrazin-6-yl)-5H-pyrrolo[2,3-d]pyrimidin-6(7H)-one] | 166% | 72 nM | –
Cc1nc(-c2cn3ccnc3c(CCC(F)(F)C(F)(F)F)n2)nc2c1C(C)(c1ccc(F)cc1)C(=O)N2 (stereo not shown) [Example 77A, 5-(4-fluorophenyl)-4,5-dimethyl-2-(8-(3,3,4,4,4-pentafluorobutyl)imidazo [1,2-a]pyrazin-6-yl)-5H-pyrrolo[2,3-d]pyrimidin-6(7H)-one] | 117% | 170 nM | –
CCCc1nc(-c2nc(O)c3c(n2)NC(=O)C3(C)c2ccc(Cl)cc2)cn2ccnc12 (stereo not shown) [Example 14A, 5-(4-chlorophenyl)-4-hydroxy-5-methyl-2-(8-propylimidazo[1,2-a]pyrazin-6-yl)-5H-pyrrolo[2,3-d]pyrimidin-6(7H)-one] | 92% | 657 nM | –
CCCCc1nc(-c2nc3c(c(C4CC4)n2)C(C)(c2ccc(F)cn2)C(=O)N3)cn2ccnc12 (stereo not shown) [Example 72B, 2-(8-butylimidazo[1,2-a]pyrazin-6-yl)-4-cyclopropyl-5-(5-fluoropyridin-2-yl)-5-methyl-5H-pyrrolo[2,3-d]pyrimidin-6(7H)-one] | 179% | 81 nM | –
O=C1Nc2nc(-c3cn4ccnc4c(Cc4ccccc4F)n3)ncc2C1(C(=O)NC1CC1)C1CC1 (single isomer, unassigned) [Example 70B, N,5-dicyclopropyl-2-(8-(2-fluorobenzyl)imidazo[1,2-a]pyrazin-6-yl)-6-oxo-6,7-dihydro-5H-pyrrolo[2,3-d]pyrimidine-5-carboxamide] | – | 61 nM | 130%
CC1(c2ccc(Cl)cc2)C(=O)Nc2nc(-c3cn4ccnc4c(CCC(F)(F)F)n3)nc(C3CC3)c21 (stereo not shown) [Example 74A, 5-(4-chlorophenyl)-4-cyclopropyl-5-methyl-2-(8-(3,3,3-trifluoropropyl)imidazo[1,2-a]pyrazin-6-yl)-5H-pyrrolo[2,3-d]pyrimidin-6(7H)-one] | 165% | 124 nM | –
O=C1Nc2nc(-c3cn4ccnc4c(CCCC(F)(F)F)n3)nc(O)c2C1(c1ccc(F)c(F)c1)C1CC1 (stereo not shown) [Example 20A, 5-cyclopropyl-5-(3,4-difluorophenyl)-4-hydroxy-2-(8-(4,4,4-trifluorobutyl)imidazo[1,2-a]pyrazin-6-yl)-5H-pyrrolo[2,3-d]pyrimidin-6(7H)-one] | 139% | 462 nM | –
O=C1Nc2nc(-c3cn4ccnc4c(CCCC(F)(F)F)n3)ncc2C1(c1ccc(Cl)c(F)c1)C1CC1 (stereo not shown) [Example 48A, 5-(4-chloro-3-fluorophenyl)-5-cyclopropyl-2-(8-(4,4,4-trifluorobutyl)imidazo[1,2-a]pyrazin-6-yl)-5H-pyrrolo[2,3-d]pyrimidin-6(7H)-one] | 130% | 24 nM | –
CCCc1nc(-c2nc(O)c3c(n2)NC(=O)C3(C)c2ccc(Cl)c(F)c2)cn2ccnc12 (stereo not shown) [Example 15B, 5-(4-chloro-3-fluorophenyl)-4-hydroxy-5-methyl-2-(8-propylimidazo[1,2-a]pyrazin-6-yl)-5H-pyrrolo[2,3-d]pyrimidin-6(7H)-one] | 84% | 702 nM | –

Results, then the compound that gave them:

Emax | EC50 | % Act. | Compound
150% | 81 nM | – | CC1(c2ccc(Cl)cn2)C(=O)Nc2nc(-c3cn4ccnc4c(CC4CCC4)n3)ncc21 (stereo not shown) [Example 58A, 5-(5-chloropyridin-2-yl)-2-(8-(cyclobutylmethyl)imidazo[1,2-a]pyrazin-6-yl)-5-methyl-5H-pyrrolo[2,3-d]pyrimidin-6(7H)-one]
107% | 10 nM | – | CC1(c2ccc(F)cc2)C(=O)Nc2nc(-c3cn4ccnc4c(CC4CCC4)n3)ncc21 (stereo not shown) [Example 63A, 2-(8-(cyclobutylmethyl)imidazo[1,2-a]pyrazin-6-yl)-5-(4-fluorophenyl)-5-methyl-5H-pyrrolo[2,3-d]pyrimidin-6(7H)-one]
90% | 981 nM | – | CCCc1nc(-c2ncc3c(n2)NC(=O)C3(C)c2ccc(Cl)cn2)cn2ccnc12 (stereo not shown) [Example 57A, 5-(5-chloropyridin-2-yl)-5-methyl-2-(8-propylimidazo[1,2-a]pyrazin-6-yl)-5H-pyrrolo[2,3-d]pyrimidin-6(7H)-one]
113% | 36 nM | – | CC(C)C1(C)C(=O)Nc2nc(-c3cn4ccnc4c(Cc4ccccc4)n3)ncc21 (single isomer, unassigned) [Example 95A, 2-(8-Benzylimidazo[1,2-a]pyrazin-6-yl)-5-isopropyl-5-methyl-5H-pyrrolo[2,3-d]pyrimidin-6(7H)-one]
– | 936 nM | 149% | CC1(C(=O)NC2CC2)C(=O)Nc2nc(-c3cn4ccnc4c(Cc4ccc(F)cc4)n3)ncc21 (single isomer, unassigned) [Example 67B, N-Cyclopropyl-2-(8-(4-fluorobenzyl)imidazo[1,2-a]pyrazin-6-yl)-5-methyl-6-oxo-6,7-dihydro-5H-pyrrolo[2,3-d]pyrimidine-5-carboxamide]
